# Measurements as given in PMC10178506, “Chemical and Biological Evaluation of Novel 1H-Chromeno[3,2-c]pyridine Derivatives as MAO Inhibitors Endowed with Potential Anticancer Activity” (International Journal of Molecular Sciences, 2023).
# Several values for one entry are separate records, joined by “and”; a condition that tells them apart may be missing. Equal values may be shown once. Read-outs that look alike come from different tables or passages of the source.
# Assays:
# MAO B = system: MAO B; parameters: method as in PMID 32716595; details: read-out: MAO B IC50 (previous work); cited from earlier work
# AChE = system: AChE; parameters: method as in PMID 32716595; details: read-out: AChE IC50 (previous work); cited from earlier work
# human recombinant MAO B = biological target: T1, human recombinant MAO B (Homo sapiens, UniProt P27338); experiment: biochemical; format: biochemical; details: for IC50: hMAO-B IC50, mean ± S.D., determined for compounds with more than 60% inhibition at 10 μM; for MAO B inhibition mechanism: Michaelis-Menten curves' fitting, kynuramine as the substrate
# T1 construct: purchased Sigma Aldrich (Milan, Italy); host or cells: baculovirus-infected insect cells
# T1 sequence (P27338 1-520): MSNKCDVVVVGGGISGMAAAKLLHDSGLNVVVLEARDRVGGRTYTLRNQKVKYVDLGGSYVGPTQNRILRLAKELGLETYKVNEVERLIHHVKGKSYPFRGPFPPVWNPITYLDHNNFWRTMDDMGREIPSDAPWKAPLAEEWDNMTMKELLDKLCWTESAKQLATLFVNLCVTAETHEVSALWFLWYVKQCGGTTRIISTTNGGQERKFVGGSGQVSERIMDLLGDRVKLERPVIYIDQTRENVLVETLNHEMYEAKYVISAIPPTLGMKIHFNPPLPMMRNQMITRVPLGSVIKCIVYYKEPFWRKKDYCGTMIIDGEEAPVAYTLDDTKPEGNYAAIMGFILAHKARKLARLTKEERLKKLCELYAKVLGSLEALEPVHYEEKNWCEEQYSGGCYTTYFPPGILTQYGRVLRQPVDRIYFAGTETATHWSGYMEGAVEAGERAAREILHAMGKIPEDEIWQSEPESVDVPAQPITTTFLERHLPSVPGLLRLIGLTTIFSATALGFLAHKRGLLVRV
# [1] = system: SK-OV-3, human ovarian carcinoma with intrinsic resistance to cisplatin; experiment: Antiproliferative activity, sulforhodamine-B (SRB) assay, SK-OV-3; format: cell-based; details: read-out: Antiproliferative activity IC50, SK-OV-3
# Procedure: (§1) The SK-OV-3 ovarian cancer cell line, MCF-7 breast cancer line and HCT-116 colon cancer cell line were obtained from the National Cancer Institute, Biological Testing Branch (Frederick, MD, USA), and maintained in the logarithmic phase at 37 °C in a 5% CO2 humidified air in RPMI 1640 medium supplemented with 10% fetal calf serum, 2 mM glutamine, penicillin (100 U/mL) and streptomycin (0.1 mg/mL).
# (§2) The growth inhibitory effects of compounds under investigation were compared to those of cisplatin (CDDP) and doxorubicin (DXR), used as positive controls, and evaluated by using the sulforhodamine-B (SRB) assay. Briefly, cells were seeded into 96-well microtiter plates in 100 µL of the appropriate culture medium at plating densities at 2500, 5000 and 8000 cells/well for MCF-7, HCT-116 and SKOV-3, respectively, depending upon the doubling time of individual cell lines. After seeding, microtiter plates were incubated at 37 °C for 24 h before adding the test compounds. After 24 h, several samples of each cell line were fixed in situ with cold trichloroacetic acid (TCA) to represent a measurement of the cell population at the time of compound addition. The test compounds were freshly dissolved in dimethyl sulfoxide (DMSO, 10^−2 M) and gradually diluted to different concentrations (0.79–50 µM) with a complete medium, so that the maximum DMSO/well ratio was 0.5% v/v. After the addition of different compound concentrations to triplicate wells, the plates were further incubated at 37 °C for 72 h. Cells were fixed in situ by the gentle addition of 50 µL of cold 50% w/v TCA (final concentration 10%) and incubated for 1 h at 4 °C. The supernatant was discarded, and the plates were washed with tap water and air-dried. SRB solution (100 µL) at 0.4% (w/v) in 1% acetic acid was added to each well, and the plates were incubated for 30 min at room temperature. After staining, the unbound dye was removed by washing with 1% acetic acid and the plates were air-dried. The bound stain was then solubilized with 10mM Trizma base and the absorbance was read on an automatic plate reader at 570 nm.
# [2] = system: HCT116, colon cancer cell line; experiment: Antiproliferative activity, sulforhodamine-B (SRB) assay, HCT116; format: cell-based, human; details: Homo sapiens, read-out: Antiproliferative activity IC50, HCT116
# Procedure: as §1, §2
# human recombinant MAO A = biological target: T2, human recombinant MAO A (Homo sapiens, UniProt P21397); experiment: biochemical; format: biochemical; details: for inhibition at 10 µM: read-out: hMAO-A % inhibition at 10 μM
# T2 construct: purchased Sigma Aldrich (Milan, Italy); host or cells: baculovirus-infected insect cells
# T2 sequence (P21397 1-527): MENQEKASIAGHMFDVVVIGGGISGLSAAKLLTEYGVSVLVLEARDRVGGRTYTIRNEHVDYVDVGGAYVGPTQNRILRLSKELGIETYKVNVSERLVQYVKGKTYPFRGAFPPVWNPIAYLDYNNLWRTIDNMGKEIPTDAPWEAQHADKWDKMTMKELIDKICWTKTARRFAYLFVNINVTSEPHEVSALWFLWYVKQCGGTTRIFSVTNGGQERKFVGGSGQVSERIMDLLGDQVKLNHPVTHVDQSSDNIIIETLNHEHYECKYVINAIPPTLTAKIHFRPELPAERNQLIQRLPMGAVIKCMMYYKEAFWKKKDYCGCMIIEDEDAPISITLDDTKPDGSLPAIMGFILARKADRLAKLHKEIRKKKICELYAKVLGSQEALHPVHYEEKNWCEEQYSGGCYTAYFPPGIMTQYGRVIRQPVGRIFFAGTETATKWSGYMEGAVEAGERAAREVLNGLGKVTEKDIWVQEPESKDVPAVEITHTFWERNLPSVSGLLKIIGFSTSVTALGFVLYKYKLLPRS
# Procedure: (§3) Human isoforms of MAOs (from baculovirus-infected insect cells) and ChEs (human recombinant AChE and BChE from human serum), purchased from Sigma Aldrich (Milan, Italy), were used for inhibition assays. Experiments were performed in 96-well plates (Greiner Bio-One, Kremsmünster, Austria) on the Infinite M1000 Pro plate reader (Tecan, Cernusco s.N., Italy), using already published protocols.
# After the addition of human recombinant MAO A (250 U/mg) or MAO B (59 U/mg) and a further 30 min of incubation, NaOH was added, and the fluorescence read at 310/400 nm excitation/emission wavelength. […] IC50 is expressed as mean ± SD of three independent measurements, each one performed in duplicate. For the kinetic study on the inhibition mechanism of MAO B, three diverse scalar concentrations of the inhibitor and seven concentrations of kynuramine were used.
# (§4) The IC50 values, Michaelis–Menten curve fitting and inhibition constant (Ki) were calculated by nonlinear regression, using Prism software.
# [3] = system: MCF-7, human breast carcinoma cell; experiment: Antiproliferative activity, sulforhodamine-B (SRB) assay, MCF-7; format: cell-based; details: Homo sapiens, read-out: Antiproliferative activity IC50, MCF-7
# Procedure: as §1, §2
# human recombinant AChE = biological target: T3, human recombinant AChE (Homo sapiens, UniProt P22303); experiment: biochemical; details: for inhibition at 10 µM: read-out: hAChE % inhibition at 10 μM
# T3 construct: purchased Sigma Aldrich (Milan, Italy)
# Procedure: as §3
# (§5) The inhibition of human recombinant AChE or BChE from human serum was determined by applying Ellman’s spectrophotometric method as described in previously reported protocols. The AChE activity was determined in an assay solution containing AChE (0.09 U/mL), 5,5′-dithiobis(2-nitrobenzoic acid) (i.e., the Ellman’s reagent, 0.33 mM), the test compound (10 μM concentration, or seven scalar concentrations for compounds achieving > 60% enzyme inhibition at 10 μM), in 0.1 M PBS pH 8.0. […] The BChE inhibitory activity was similarly determined by using BChE (0.09 U/mL) and butyrylthiocholine iodide (5 μM) as the substrate.
# as §4
# BChE from human serum = biological target: T4, BChE from human serum (Homo sapiens, UniProt P06276); experiment: biochemical; details: 10 μM concentration, mean ± S.D. (n = 3), n.i. = no inhibition at 10 μM; for inhibition at 10 µM: read-out: hBChE % inhibition at 10 μM
# T4 construct: ChEs (human recombinant AChE and BChE from human serum), purchased from Sigma Aldrich (Milan, Italy); purchased Sigma Aldrich (Milan, Italy); host or cells: human serum (natural source)
# Procedure: as §3, §5, §4
# [4] = Homo sapiens, SK-OV-3, 72 h, 72 h exposure, SRB assay, mean ± S.D., >50 = less than 50% growth inhibition at 50 μM
# [5] = HCT-116, 72 h exposure, SRB assay, mean ± S.D., >50 = less than 50% growth inhibition at 50 μM
# [6] = MCF7, 72 h exposure, SRB assay, mean ± S.D., >50 = less than 50% growth inhibition at 50 μM
# T4 sequence (P06276 29-602): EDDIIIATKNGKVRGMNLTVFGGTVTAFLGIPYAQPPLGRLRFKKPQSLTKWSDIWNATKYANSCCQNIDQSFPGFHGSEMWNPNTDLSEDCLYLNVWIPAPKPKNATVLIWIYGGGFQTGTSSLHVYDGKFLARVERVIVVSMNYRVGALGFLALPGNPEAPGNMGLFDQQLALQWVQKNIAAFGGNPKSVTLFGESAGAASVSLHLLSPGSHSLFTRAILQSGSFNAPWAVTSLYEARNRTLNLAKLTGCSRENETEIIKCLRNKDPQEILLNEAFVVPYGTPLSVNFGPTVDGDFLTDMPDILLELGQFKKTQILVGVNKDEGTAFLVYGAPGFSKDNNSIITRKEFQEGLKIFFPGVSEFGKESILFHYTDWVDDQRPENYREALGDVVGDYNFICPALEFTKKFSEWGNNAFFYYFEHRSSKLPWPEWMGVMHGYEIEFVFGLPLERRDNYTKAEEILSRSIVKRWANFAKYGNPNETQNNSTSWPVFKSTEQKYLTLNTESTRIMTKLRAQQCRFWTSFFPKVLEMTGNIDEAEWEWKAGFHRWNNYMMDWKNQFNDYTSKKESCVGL
# T3 sequence (P22303 32-614): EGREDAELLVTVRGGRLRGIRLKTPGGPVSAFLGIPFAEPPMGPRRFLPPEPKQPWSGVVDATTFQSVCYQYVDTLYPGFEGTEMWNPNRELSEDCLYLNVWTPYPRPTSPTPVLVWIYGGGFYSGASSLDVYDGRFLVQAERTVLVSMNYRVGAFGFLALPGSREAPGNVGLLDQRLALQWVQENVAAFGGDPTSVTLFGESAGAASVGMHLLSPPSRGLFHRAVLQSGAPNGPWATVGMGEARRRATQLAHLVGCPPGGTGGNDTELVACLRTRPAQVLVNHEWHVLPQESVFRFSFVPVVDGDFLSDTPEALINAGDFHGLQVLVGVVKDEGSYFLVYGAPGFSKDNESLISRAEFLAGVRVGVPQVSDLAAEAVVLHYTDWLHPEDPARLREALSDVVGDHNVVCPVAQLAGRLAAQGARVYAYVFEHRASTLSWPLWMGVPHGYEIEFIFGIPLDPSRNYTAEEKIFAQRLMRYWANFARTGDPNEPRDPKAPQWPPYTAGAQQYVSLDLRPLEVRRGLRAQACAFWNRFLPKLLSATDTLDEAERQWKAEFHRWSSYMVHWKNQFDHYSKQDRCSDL
Compound,melting point [°C],IC50 (human recombinant MAO B),inhibition at 10 µM (human recombinant AChE) [%],"IC50 [1, 4] [µM]","IC50 [2, 5] [µM]",inhibition at 10 µM (human recombinant MAO A) [%],"IC50 [3, 6] [µM]",inhibition at 10 µM (BChE from human serum) [%],further results
CN1CCC2=C(C1)C(C[N+](=O)[O-])c1cc(Br)ccc1O2 (stereo not shown),140 to 142,–,–,–,–,–,–,–,–
CN1CC[C@@]2(O)Oc3ccc(Cl)cc3[C@@H](O)[C@H]2C1,172 to 173,–,–,–,–,–,–,–,–
COc1cccc2c1O[C@]1(O)CCN(C)C[C@@H]1[C@@H]2O,134 to 135,–,–,–,–,–,–,–,–
CN1CC[C@@]2(O)Oc3ccc([N+](=O)[O-])cc3[C@@H](O)[C@H]2C1,158 to 159,–,–,–,–,–,–,–,–
CN1CC[C@@]2(O)Oc3ccc(Cl)cc3[C@@H](O)[C@@H]2C1,167 to 168,–,–,–,–,–,–,–,–
COc1cccc2c1O[C@]1(O)CCN(C)C[C@H]1[C@@H]2O,148 to 149,–,–,–,–,–,–,–,–
CCOc1cccc2c(=O)c3c(oc12)CCN(Cc1ccccc1)C3,–,–,–,–,–,–,–,–,IC50 (MAO B): 0.89 µM
CC(C)N1CCc2oc3ccc(Br)cc3c(=O)c2C1,–,–,–,–,–,–,–,–,IC50 (AChE): 3.22 µM; IC50 (MAO B): 2.23 µM
"CN1CC=C2Oc3ccc(Br)cc3C=C2C1 [2b, 8-Bromo-2,3-dihydro-2-methyl-1H-chromeno[3,2-c]pyridine]",–,7.88 ± 0.02 µM,31,–,–,–,–,–,"IC50 ([1]; Homo sapiens, SK-OV-3, 72 h): > 50 µM; IC50 ([2]; HCT-116, 72 h): > 50 µM; IC50 (human recombinant MAO A): 0.703 ± 0.012 µM; Selectivity for MAO A over MAO B (human recombinant MAO A; from MAO A and MAO B inhibition data): about tenfold; IC50 ([3]; MCF7, 72 h): 42.9 ± 4.82 µM; hBChE % inhibition at 10 μM (BChE from human serum): n.i."
"COc1cccc2c(=O)c3c(oc12)C=CN(C)C3C#Cc1ccccc1 (stereo not shown) [3b, 6-Metoxy-2-methyl-1-(phenylethinyl)-1H-chromeno[3,2-c]pyridine-10(2H)-one]",–,0.63 µM and 0.626 µM,39,> 50,36.1 ± 2.1,32,39.7 ± 11.3,19,Ki (human recombinant MAO B): 1.41 ± 0.21 µM; MAO B inhibition mechanism (human recombinant MAO B): competitive; MAO B/A selectivity (human recombinant MAO B; from MAO B and MAO A inhibition data): more than twentyfold
"CCN1C=Cc2oc3ccccc3c(=O)c2C1C#CC(F)(F)F (stereo not shown) [3c, 2-Ethyl-1-(3,3,3-trifluoroprop-1-yn-1-yl)-1,2-dihydro-10H-chromeno[3,2-c]pyridin-10-one]",–,–,–,> 50,47.2 ± 5.42,20,27.8 ± 9.6,15,inhibition at 10 µM (human recombinant MAO B; read-out: hMAO-B % inhibition at 10 μM): 26%; hAChE % inhibition at 10 μM (human recombinant AChE): n.i.
"CN1CCC2=C(C1)C(c1c[nH]c3ccccc13)c1cc(Cl)ccc1O2 (stereo not shown) [6a, 8-Chloro-10-(1H-indole-3-yl)-2-methyl-2,3,4,10-tetrahydro-1H-chromeno[3,2-c]pyridine]",–,7.3 ± 0.65 µM,53,14.7 ± 2.81,8.62 ± 2.21,21,4.8 ± 0.81,38,–
"COc1ccc2[nH]cc(C3C4=C(CCN(C)C4)Oc4ccc(Cl)cc43)c2c1 (stereo not shown) [6b, 8-Chloro-10-(5-metoxy-1H-indole-3-yl)-2-methyl-2,3,4,10-tetrahydro-1H-chromeno[3,2-c]pyridine]",–,4.72 ± 0.1 µM,53,22.3 ± 1.42,18.6 ± 2.22,21,6.62 ± 2.7,15,–
"CN1CCC2=C(C1)C(c1c[nH]c3ccc(Br)cc13)c1cc(Cl)ccc1O2 (stereo not shown) [6c, 8-Chloro-10-(5-bromo-1H-indole-3-yl)-2-methyl-2,3,4,10-tetrahydro-1H-chromeno[3,2-c]pyridine]",–,3.51 ± 0.2 µM,37,11,9.4 ± 0.22,29,4.83 ± 0.79,23,"Ki (human recombinant MAO B): 6.47 ± 0.22 µM; MAO B inhibition mechanism (human recombinant MAO B): competitive; IC50 ([1]; 72 h exposure, SRB assay, mean ± S.D., >50 = less than 50% growth inhibition at 50 μM): 11.3 ± 0.32 µM"
